In the kinase profiling compilation of Christmann-Franck et al. (2016):

Legend:
Assay in all cases: Free Choice Kinase Assay Projects, Flashplate
CSNK2A1 (human) = CSNK2A1 (human) (UniProt P68400); settings: compound 10.0 µM; ATP 0.1 µM
AURKB (human) = AURKB (human) (UniProt Q96GD4); settings: compound 10.0 µM; ATP 10 µM
TEK (human) = TEK (human) (UniProt Q02763); settings: compound 10.0 µM; ATP 1 µM
AXL (human) = AXL (human) (UniProt P30530); settings: compound 10.0 µM; ATP 0.3 µM
KDR (human) = KDR (human) (UniProt P35968); settings: compound 10.0 µM; ATP 1 µM
PDGFRB (human) = PDGFRB (human) (UniProt P09619); settings: compound 10.0 µM; ATP 0.3 µM
PLK4 (human) = PLK4 (human) (UniProt O00444); settings: compound 10.0 µM; ATP 0.3 µM
EGFR (human) = EGFR (human) (UniProt P00533); settings: compound 10.0 µM; ATP 0.3 µM
MAPK10 (human) = MAPK10 (human) (UniProt P53779); settings: compound 10.0 µM; ATP 0.3 µM
NUAK1 (human) = NUAK1 (human) (UniProt O60285); settings: compound 10.0 µM; ATP 1 µM
MAPK14 (human) = MAPK14 (human) (UniProt Q16539); settings: compound 10.0 µM; ATP 1 µM
CDK2 CCNA2 (human) = CDK2 CCNA2 (human) (UniProt P24941+P20248); settings: compound 10.0 µM; ATP 0.3 µM
EPHB4 (human) = EPHB4 (human) (UniProt P54760); settings: compound 10.0 µM; ATP 1 µM
PLK1 (human) = PLK1 (human) (UniProt P53350); settings: compound 10.0 µM; ATP 1 µM
AKT1 (human) = AKT1 (human) (UniProt P31749); settings: compound 10.0 µM; ATP 3 µM
PTK2 (human) = PTK2 (human) (UniProt Q05397); settings: compound 10.0 µM; ATP 1 µM
SRC (human) = SRC (human) (UniProt P12931); settings: compound 10.0 µM; ATP 0.3 µM
CDK4 CCND1 (human) = CDK4 CCND1 (human) (UniProt P11802+P24385); settings: compound 10.0 µM; ATP 3 µM
MET (human) = MET (human) (UniProt P08581); settings: compound 10.0 µM; ATP 0.3 µM
MAP3K8 (human) = MAP3K8 (human) (UniProt P41279); settings: compound 10.0 µM; ATP 3 µM
AURKA (human) = AURKA (human) (UniProt O14965); settings: compound 10.0 µM; ATP 10 µM
IGF1R (human) = IGF1R (human) (UniProt P08069); settings: compound 10.0 µM; ATP 1 µM
ERBB2 (human) = ERBB2 (human) (UniProt P04626); settings: compound 10.0 µM; ATP 1 µM

Sequence of NUAK1 (human) (O60285 whole entry, looked up): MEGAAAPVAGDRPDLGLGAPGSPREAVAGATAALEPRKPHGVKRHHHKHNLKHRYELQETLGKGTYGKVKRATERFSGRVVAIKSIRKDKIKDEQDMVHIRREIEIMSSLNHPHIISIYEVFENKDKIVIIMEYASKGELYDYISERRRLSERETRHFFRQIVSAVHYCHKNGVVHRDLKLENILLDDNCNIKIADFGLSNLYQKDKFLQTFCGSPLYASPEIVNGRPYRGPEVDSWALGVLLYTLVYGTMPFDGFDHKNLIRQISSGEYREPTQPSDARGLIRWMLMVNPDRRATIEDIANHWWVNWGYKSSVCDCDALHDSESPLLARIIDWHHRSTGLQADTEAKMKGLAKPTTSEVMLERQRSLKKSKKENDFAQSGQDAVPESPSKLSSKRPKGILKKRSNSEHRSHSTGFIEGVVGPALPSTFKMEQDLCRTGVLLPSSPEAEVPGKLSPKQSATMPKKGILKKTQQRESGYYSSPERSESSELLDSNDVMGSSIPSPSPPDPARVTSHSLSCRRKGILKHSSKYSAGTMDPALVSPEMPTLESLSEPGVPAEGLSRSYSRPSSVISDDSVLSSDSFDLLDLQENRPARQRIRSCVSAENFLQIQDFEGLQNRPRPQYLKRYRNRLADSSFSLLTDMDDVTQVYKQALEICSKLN
Sequence of SRC (human) (P12931 whole entry, looked up): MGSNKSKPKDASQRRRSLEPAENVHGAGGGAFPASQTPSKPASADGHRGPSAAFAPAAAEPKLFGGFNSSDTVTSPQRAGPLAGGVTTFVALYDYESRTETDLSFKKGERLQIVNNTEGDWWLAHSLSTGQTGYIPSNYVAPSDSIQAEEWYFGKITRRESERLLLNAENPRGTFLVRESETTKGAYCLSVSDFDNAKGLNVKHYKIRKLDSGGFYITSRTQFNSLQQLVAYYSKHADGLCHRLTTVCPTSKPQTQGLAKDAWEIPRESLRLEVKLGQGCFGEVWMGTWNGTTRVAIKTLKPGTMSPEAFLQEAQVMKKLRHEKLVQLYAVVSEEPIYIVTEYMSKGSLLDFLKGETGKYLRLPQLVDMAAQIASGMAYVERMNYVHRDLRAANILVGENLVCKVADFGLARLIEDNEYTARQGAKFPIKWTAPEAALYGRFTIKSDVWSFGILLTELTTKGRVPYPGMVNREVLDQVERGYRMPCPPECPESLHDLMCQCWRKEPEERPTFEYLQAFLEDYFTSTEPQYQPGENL
Sequence of MAPK14 (human) (Q16539 whole entry, looked up): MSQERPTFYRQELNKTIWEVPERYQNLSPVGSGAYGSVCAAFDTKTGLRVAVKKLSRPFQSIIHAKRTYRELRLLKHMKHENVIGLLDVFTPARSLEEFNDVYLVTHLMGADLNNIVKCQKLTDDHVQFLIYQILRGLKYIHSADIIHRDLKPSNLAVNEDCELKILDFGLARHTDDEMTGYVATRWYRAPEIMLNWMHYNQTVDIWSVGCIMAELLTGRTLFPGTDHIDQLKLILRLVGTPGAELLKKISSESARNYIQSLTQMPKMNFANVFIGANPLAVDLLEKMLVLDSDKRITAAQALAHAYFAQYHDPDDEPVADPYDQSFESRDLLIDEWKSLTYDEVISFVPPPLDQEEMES
Sequence of EPHB4 (human) (P54760 whole entry, looked up): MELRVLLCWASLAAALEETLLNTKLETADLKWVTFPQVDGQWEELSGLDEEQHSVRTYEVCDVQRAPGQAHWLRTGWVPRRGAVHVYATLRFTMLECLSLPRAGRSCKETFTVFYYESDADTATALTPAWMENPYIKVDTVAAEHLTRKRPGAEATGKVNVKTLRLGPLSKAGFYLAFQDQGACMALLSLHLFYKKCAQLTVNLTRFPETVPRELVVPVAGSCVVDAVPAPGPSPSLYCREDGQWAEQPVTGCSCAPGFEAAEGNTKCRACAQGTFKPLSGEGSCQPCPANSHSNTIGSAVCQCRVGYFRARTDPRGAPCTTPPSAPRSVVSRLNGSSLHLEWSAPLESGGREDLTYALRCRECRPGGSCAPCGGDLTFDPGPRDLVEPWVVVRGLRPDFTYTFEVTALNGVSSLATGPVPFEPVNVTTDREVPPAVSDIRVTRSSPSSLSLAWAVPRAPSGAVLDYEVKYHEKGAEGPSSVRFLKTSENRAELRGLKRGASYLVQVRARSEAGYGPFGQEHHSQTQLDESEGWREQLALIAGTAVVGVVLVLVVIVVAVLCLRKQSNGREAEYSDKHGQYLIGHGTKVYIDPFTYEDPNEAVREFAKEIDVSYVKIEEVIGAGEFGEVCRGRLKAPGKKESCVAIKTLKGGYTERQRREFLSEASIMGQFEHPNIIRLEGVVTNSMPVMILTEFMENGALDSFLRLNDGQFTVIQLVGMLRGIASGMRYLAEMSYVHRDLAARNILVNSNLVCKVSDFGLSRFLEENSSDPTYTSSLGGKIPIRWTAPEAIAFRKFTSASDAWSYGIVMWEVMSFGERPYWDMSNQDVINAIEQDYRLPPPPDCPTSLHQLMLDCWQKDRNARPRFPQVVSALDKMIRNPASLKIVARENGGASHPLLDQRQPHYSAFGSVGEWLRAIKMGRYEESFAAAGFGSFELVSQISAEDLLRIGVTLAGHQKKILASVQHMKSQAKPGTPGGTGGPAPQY
Sequence of CDK2 CCNA2 (human) (P20248 whole entry, looked up, other chains not shown): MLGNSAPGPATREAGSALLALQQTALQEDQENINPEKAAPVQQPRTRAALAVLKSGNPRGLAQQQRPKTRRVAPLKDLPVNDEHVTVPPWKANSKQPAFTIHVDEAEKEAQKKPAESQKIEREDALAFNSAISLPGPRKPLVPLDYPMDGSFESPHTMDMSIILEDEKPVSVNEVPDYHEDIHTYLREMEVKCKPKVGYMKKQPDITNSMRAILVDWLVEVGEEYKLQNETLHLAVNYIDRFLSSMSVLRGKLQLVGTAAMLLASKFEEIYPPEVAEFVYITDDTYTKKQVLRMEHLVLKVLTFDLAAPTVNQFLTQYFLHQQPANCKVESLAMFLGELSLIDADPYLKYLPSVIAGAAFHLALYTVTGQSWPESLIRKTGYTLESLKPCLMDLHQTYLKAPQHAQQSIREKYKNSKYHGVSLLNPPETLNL
Sequence of CDK4 CCND1 (human) (P11802 whole entry, looked up): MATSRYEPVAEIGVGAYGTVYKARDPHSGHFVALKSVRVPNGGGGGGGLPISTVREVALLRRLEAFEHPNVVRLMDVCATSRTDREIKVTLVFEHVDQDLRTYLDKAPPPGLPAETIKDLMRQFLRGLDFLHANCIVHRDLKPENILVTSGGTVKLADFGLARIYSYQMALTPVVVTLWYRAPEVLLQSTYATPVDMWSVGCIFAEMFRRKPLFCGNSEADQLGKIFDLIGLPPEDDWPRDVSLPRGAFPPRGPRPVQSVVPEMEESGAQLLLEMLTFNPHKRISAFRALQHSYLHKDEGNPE
Sequence of CDK4 CCND1 (human) (P24385 whole entry, looked up): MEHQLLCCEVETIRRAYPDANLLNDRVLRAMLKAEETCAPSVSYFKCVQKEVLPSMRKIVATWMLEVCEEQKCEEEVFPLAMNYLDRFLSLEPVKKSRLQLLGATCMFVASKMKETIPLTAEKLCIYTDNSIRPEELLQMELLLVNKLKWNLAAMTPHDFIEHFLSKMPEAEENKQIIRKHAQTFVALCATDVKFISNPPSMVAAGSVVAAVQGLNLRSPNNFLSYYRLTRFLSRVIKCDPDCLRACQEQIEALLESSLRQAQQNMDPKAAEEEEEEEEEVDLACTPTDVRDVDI
Sequence of AURKA (human) (O14965 whole entry, looked up): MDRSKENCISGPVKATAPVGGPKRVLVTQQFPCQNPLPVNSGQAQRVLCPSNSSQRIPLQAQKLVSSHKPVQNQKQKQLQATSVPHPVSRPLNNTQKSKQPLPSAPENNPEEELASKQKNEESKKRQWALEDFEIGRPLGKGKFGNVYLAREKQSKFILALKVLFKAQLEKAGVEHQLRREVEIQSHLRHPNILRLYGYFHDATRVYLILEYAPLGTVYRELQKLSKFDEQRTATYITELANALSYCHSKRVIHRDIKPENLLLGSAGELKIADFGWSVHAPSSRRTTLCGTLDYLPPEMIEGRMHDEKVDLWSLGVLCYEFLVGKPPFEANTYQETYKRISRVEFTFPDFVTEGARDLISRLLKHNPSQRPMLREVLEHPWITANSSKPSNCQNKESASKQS
Sequence of MAPK10 (human) (P53779 whole entry, looked up): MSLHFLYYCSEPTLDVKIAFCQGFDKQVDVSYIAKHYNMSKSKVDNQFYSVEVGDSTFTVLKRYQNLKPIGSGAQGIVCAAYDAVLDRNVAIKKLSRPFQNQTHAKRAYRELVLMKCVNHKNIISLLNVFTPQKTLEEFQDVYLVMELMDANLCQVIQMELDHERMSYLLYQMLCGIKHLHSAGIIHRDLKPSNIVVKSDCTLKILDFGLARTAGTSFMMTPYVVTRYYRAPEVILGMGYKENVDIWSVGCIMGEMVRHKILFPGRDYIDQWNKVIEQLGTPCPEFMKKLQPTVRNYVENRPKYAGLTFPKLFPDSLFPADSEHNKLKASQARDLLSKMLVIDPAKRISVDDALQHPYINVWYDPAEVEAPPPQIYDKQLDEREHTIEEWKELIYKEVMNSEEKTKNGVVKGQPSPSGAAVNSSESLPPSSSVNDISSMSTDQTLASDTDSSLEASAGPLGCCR
Sequence of MAP3K8 (human) (P41279 whole entry, looked up): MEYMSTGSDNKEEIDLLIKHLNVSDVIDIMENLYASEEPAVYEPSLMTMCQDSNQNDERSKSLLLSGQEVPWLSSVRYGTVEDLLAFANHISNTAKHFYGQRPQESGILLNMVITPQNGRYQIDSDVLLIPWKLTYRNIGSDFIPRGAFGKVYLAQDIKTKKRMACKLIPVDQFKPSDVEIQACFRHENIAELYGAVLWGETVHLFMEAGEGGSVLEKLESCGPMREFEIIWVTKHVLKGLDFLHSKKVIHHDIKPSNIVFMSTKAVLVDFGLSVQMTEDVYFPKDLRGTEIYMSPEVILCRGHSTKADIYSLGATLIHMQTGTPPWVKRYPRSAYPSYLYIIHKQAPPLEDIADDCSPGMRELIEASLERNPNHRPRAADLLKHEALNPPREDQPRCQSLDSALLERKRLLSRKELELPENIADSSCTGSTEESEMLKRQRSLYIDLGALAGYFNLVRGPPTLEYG

SMILES | residual activity (CSNK2A1 (human)) | residual activity (AURKB (human)) | residual activity (TEK (human)) | residual activity (AXL (human)) | residual activity (KDR (human)) | residual activity (PDGFRB (human)) | residual activity (PLK4 (human)) | residual activity (EGFR (human)) | residual activity (MAPK10 (human)) | residual activity (NUAK1 (human)) | residual activity (MAPK14 (human)) | residual activity (CDK2 CCNA2 (human)) | residual activity (EPHB4 (human)) | residual activity (PLK1 (human)) | residual activity (AKT1 (human)) | residual activity (PTK2 (human)) | residual activity (SRC (human)) | residual activity (CDK4 CCND1 (human)) | residual activity (MET (human)) | residual activity (MAP3K8 (human)) | further results
On1c(CCc2ccccc2)nc(-c2ccncc2)c1-c1ccc(F)cc1 | 82% | 41% | 18% | 79% | 4% | 37% | 16% | 1% | 14% | 100% | 0% | 54% | 32% | 100% | 144% | 87% | 4% | 84% | 44% | 78% | residual activity (AURKA (human)): 44%; residual activity (IGF1R (human)): 17%; residual activity (ERBB2 (human)): 2%
Fc1ccc(-c2[nH]c(SCc3ccccc3)nc2-c2ccnc(F)c2)cc1 | 86% | 85% | 34% | 75% | 32% | 70% | 128% | 17% | 88% | 127% | 7% | 71% | 77% | 131% | 155% | 90% | 18% | 109% | 76% | 106% | residual activity (AURKA (human)): 93%; residual activity (IGF1R (human)): 41%; residual activity (ERBB2 (human)): 9%
CSc1nc(-c2ccnc(F)c2)c(-c2ccc(F)cc2)[nH]1 | 98% | 90% | 71% | 101% | 39% | 81% | 76% | 23% | 48% | 105% | 2% | 125% | 61% | 85% | 102% | 100% | 60% | 132% | 91% | 105% | residual activity (AURKA (human)): 93%; residual activity (IGF1R (human)): 96%; residual activity (ERBB2 (human)): 18%
CSc1nc(-c2ccnc(NC(C)=O)c2)c(-c2ccc(F)cc2)n1C | 88% | 78% | 24% | 52% | 13% | 26% | 70% | 17% | 11% | 104% | 1% | 111% | 32% | 109% | 154% | 71% | 29% | 102% | 79% | 74% | residual activity (AURKA (human)): 58%; residual activity (IGF1R (human)): 78%; residual activity (ERBB2 (human)): 31%
Fc1ccc(-c2[nH]c(SCC3CCCCC3)nc2-c2ccncc2)cc1 | 86% | 80% | 36% | 63% | 48% | 81% | 34% | 24% | 63% | 91% | 23% | 74% | 38% | 83% | 56% | 106% | 38% | 44% | 73% | 73% | residual activity (AURKA (human)): 46%; residual activity (IGF1R (human)): 22%; residual activity (ERBB2 (human)): 46%
